{"source": "patent US11472846B2", "about": "“Compositions and methods for treating diseases by inhibiting exosome release” (priority 2016, dated 2022)", "key": {"[1]": {"test_system": "MDA-MB-231 breast cancer cells", "assay": "InnoCyte cell migration assay, MDA-MB-231", "assay_type": "cell-based, human", "conditions": "MDA-MB-231 cells, 280 nM SMR peptide or 3 μM Latrunculin A, 24 hours", "protocol": "(§1) 7-12. Cell migration assay. Cell migration assays were performed using the InnoCyte Cell Migration Assay (EMD Millipore Corporation, Temecula, Calif.) according to the manufacturer's instructions. Briefly, cell migration was monitored in the presence and absence of SMRwt peptides or latrunculin A (positive control inhibitor), which were added to the lower chamber of a 96-well plate. MCF-7 and MDA-MB-231 breast cancer cells and non-tumorigenic MCF-10A breast cells were harvested by 0.25% Trypsin-EDTA (Life Technologies) release and resuspended at 250,000500,000 cells/ml in serum-free RPMI 1640 media. A total of 25,000-50,000 cells was added to the upper chamber and allowed to migrate through an 8-μm pore-size membrane for 24 hours at 37° C. in a 5% CO2 atmosphere. Cells that migrated through the membrane were detached and labeled with Calcein-AM fluorescent dye. Fluorescence was measured using a Fluorescence Plate Reader (Molecular Devices, Sunnyvale, Calif.) with an excitation wavelength of 485 nm and an emission wavelength of 515 nm. The experiment was repeated in triplicate, and each conditioned experiment was performed in quadruplicate."}, "[2]": {"test_system": "MCF-7 breast cancer cells", "assay": "InnoCyte cell migration assay, MCF-7", "assay_type": "cell-based, human", "conditions": "MCF-7 cells, 1120 nM SMR peptide or 3 μM Latrunculin A, 24 hours", "protocol": "as §1"}}}
{"smiles": "C/C1=C/C(=O)O[C@@H]2C[C@@H](CC[C@H](C)/C=C\\C=C\\CC1)O[C@@](O)([C@@H]1CSC(=O)N1)C2", "note": "[latrunculin A, reference compound]", "values": [{"measurement": "reduced migration by", "setting": "[1]", "result": 50.39, "unit": "%"}, {"measurement": "reduced migration by", "setting": "[2]", "result": 53.05, "unit": "%"}]}
